Assays:
human cathepsin K = human cathepsin K (UniProt P43236, Y175D/V274L, species not given); experiment: Cathepsin K Assay; format: biochemical; conditions: IP from dose response curve; Z-Leu-Arg-AMC substrate, pH 5.5; read-out: hrbCat K (IP (nM))
human cathepsin F = molecular target: T1, human cathepsin F (Homo sapiens, UniProt Q9UBX1); experiment: Cathepsin F Assay; format: biochemical; conditions: IP from dose response curve; Z-Phe-Arg-AMC substrate, pH 5.5; read-out: hCat F (IP (nM))
T1 sequence (Q9UBX1 271-484): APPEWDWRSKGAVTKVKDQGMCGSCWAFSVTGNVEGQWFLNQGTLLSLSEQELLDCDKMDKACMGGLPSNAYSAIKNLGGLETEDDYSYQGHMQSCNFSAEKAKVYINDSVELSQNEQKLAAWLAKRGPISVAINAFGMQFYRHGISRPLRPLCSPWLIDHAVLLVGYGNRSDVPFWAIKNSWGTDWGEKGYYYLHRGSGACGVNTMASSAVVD
How it was run: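 Human cathepsin F (10 nM) preincubated 15 min at room temperature with compounds in 50 mM MES pH 5.5, 2.5 mM EDTA, 2.5 mM DTT, 10% DMSO. Z-Phe-Arg-AMC (8 μM) added; AMC release read by fluorescence (Ex 360/Em 460 nm) over 20 min, inhibition fit to dose-response model.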

`CN=S1(=O)CCN(c2ccc(-c3c([C@@H]4CCCC[C@H]4C(=O)NC4(C#N)CC4)nn(-c4ncccc4F)c3C)cc2)CC1` [Example 44, (1R,2R)-N-(1-cyanocyclopropyl)-2-(1-(3-fluoropyridin-2-yl)-5-methyl-4-(4-(1-(methylimino)-1-oxidothiomorpholino)phenyl)-1H-pyrazol-3-yl)cyclohexanecarboxamide] showed an IC50 (human cathepsin K) of 13.9 nM and an IC50 (human cathepsin F) of 8840 nM.

`N#CC1(NC(=O)[C@@H]2CC3CC3C[C@H]2c2nn(-c3ccc(F)cn3)cc2-c2ccc(N3CCS(=O)(=O)CC3)cc2)CC1` (single isomer, unassigned) [Example 153, (1R,3R,4R,6S) or (1S,3R,4R,6R)-N-(1-cyanocyclopropyl)-4-(4-(4-(1,1-dioxidothiomorpholino)phen-yl)-1-(5-fluoropyridin-2-yl)-1H-pyrazol-3-yl)bicyclo[4.1.0]heptane-3-carboxamide] showed an IC50 (human cathepsin K) of 0.66 nM and an IC50 (human cathepsin F) of 265 nM.

With `Cn1cc(-n2cc(-c3ccc(N4CCS(=O)(=O)CC4)cc3)c([C@@H]3CCCC[C@H]3C(=O)NC3(C#N)CC3)n2)cn1` [Example 171, (1R,2R)-N-(1-cyanocyclopropyl)-2-(4-(4-(1,1-dioxidothiomorpholino)phen-yl)-1′-methyl-1′H-[1,4′-bipyrazol]-3-yl)cyclohexanecarboxamide] the IC50 (human cathepsin K) was 3.38 nM and the IC50 (human cathepsin F) was 2760 nM.

`N#CCNC(=O)[C@H]1CC(F)(F)CC[C@@H]1c1nn(-c2ccc(F)cc2)cc1-c1ccc(N2CCS(=O)(=O)CC2)cc1` [Example 82, (1S,2S)-N-(cyanomethyl)-2-(4-(4-(1,1-dioxidothiomorpholino)phen-yl)-1-(4-fluorophenyl)-1H-pyrazol-3-yl)-5,5-difluorocyclohexanecarbox-amide] gave an IC50 (human cathepsin K) of 144 nM and an IC50 (human cathepsin F) of 1400 nM.

For `N#CC1(NC(=O)[C@@H]2CCCC[C@H]2c2nn(-c3cccc(OC(F)(F)F)c3)cc2-c2ccc(N3CCS(=O)(=O)CC3)cc2)CC1` [Example 122, (1R,2R)-N-(1-cyanocyclopropyl)-2-(4-(4-(1,1-dioxidothiomorpholino)phen-yl)-1-(3-(trifluoromethoxy)phenyl)-1H-pyrazol-3-yl)cyclohexanecarboxamide], the IC50 (human cathepsin K) was 0.78 nM and the IC50 (human cathepsin F) was 466 nM.

`N#CC1(NC(=O)[C@@H]2CCCC[C@H]2c2nn(-c3ccc(F)cc3)cc2-c2ccc(C3CN(C(=O)NCC(F)(F)F)C3)cc2)CC1` [Example 136, 3-(4-(3-((1R,2R)-2-((1-cyanocyclopropyl)carbamoyl)cyclohexyl)-1-(4-fluorophenyl)-1H-pyrazol-4-yl)phenyl)-N-(2,2,2-trifluoroethyl)azetidine-1-carboxamide] gave an IC50 (human cathepsin K) of 0.97 nM and an IC50 (human cathepsin F) of 83 nM.

`N#CC1(NC(=O)[C@@H]2CCC(F)(F)C[C@H]2c2nn(-c3ncccc3F)cc2-c2ccc(N3CCS(=O)(=O)CC3)cc2)CC1` [Example 33, (1R,2R)-N-(1-cyanocyclopropyl)-2-(4-(4-(1,1-dioxidothiomorpholino)phen-yl)-1-(3-fluoropyridin-2-yl)-1H-pyrazol-3-yl)-4,4-difluorocyclohexanecarbox-amide] gave an IC50 (human cathepsin K) of 13.6 nM and an IC50 (human cathepsin F) of 9540 nM.

`Cc1c(-c2ccc(N3CCS(=N)(=O)CC3)cc2)c([C@@H]2CCCC[C@H]2C(=O)N[C@@H](C)C#N)nn1-c1ncccc1F` [Example 51, (1R,2R)-N-((S)-1-cyanoethyl)-2-(1-(3-fluoropyridin-2-yl)-4-(4-(1-imino-1-oxidothiomorpholino)phenyl)-5-methyl-1H-pyrazol-3-yl)cyclohexanecarboxamide] showed an IC50 (human cathepsin K) of 7.41 nM and an IC50 (human cathepsin F) of 3870 nM.

With `N#CC1(NC(=O)[C@@H]2C[C@@H](F)CC[C@H]2c2nn(-c3ccc(F)cn3)cc2-c2ccc(N3CCS(=N)(=O)CC3)cc2)CC1` [Example 14, (1R,2R,5S)-N-(1-cyanocyclopropyl)-5-fluoro-2-(1-(5-fluoropyridin-2-yl)-4-(4-(1-imino-1-oxidothiomorpholino)phenyl)-1H-pyrazol-3-yl)cyclohexanecarboxamide] the IC50 (human cathepsin K) was 2 nM and the IC50 (human cathepsin F) was 2020 nM.

`N#CC1(NC(=O)[C@@H]2CCCC[C@H]2c2nn(-c3ccc(C(F)(F)F)nc3)cc2-c2ccc(N3CCS(=O)(=O)CC3)cc2)CC1` [Example 166, (1R,2R)-N-(1-cyanocyclopropyl)-2-(4-(4-(1,1-dioxidothiomorpholino)phen-yl)-1-(6-(trifluoromethyl)pyridin-3-yl)-1H-pyrazol-3-yl)cyclohexanecarboxamide] was tested, and the IC50 (human cathepsin K) was 1.31 nM and the IC50 (human cathepsin F) was 428 nM.

`CN=S1(=O)CCN(c2ccc(-c3cn(-c4ncccc4F)nc3[C@@H]3CC(F)(F)CC[C@H]3C(=O)N[C@@H](C)C#N)cc2)CC1` [Example 46, (1R,2R)-N-((S)-1-cyanoethyl)-4,4-difluoro-2-(1-(3-fluoropyridin-2-yl)-4-(4-(1-(methylimino)-1-oxidothiomorpholino)phenyl)-1H-pyrazol-3-yl)cyclohexanecarboxamide] showed an IC50 (human cathepsin K) of 5.78 nM and an IC50 (human cathepsin F) of 6620 nM.

`N#CC1(NC(=O)[C@@H]2CC3CC3C[C@H]2c2nn(-c3ccc(Cl)cn3)cc2-c2ccc(N3CCS(=O)(=O)CC3)cc2)CC1` (single isomer, unassigned) [Example 155] gave an IC50 (human cathepsin K) of 0.56 nM and an IC50 (human cathepsin F) of 197 nM.

`N#CC1(NC(=O)[C@@H]2CCCC[C@H]2c2nn(-c3cc(F)cnc3F)cc2-c2ccc(N3CCS(=O)(=O)CC3)cc2)CC1` [Example 169, (1R,2R)-N-(1-cyanocyclopropyl)-2-(1-(2,5-difluoropyridin-3-yl)-4-(4-(1,1-dioxidothiomorpholino)phen-yl)-1H-pyrazol-3-yl)cyclohexanecarboxamide] showed an IC50 (human cathepsin K) of 3.94 nM and an IC50 (human cathepsin F) of 5670 nM.

`Cc1cc(C#N)ccc1-n1cc(-c2ccc(N3CCS(=O)(=O)CC3)cc2)c([C@@H]2CCCC[C@H]2C(=O)NC2(C#N)CC2)n1` [Example 103, (1R,2R)-2-(1-(4-cyano-2-methylphenyl)-4-(4-(1,1-dioxidothiomorpholino)phen-yl)-1H-pyrazol-3-yl)-N-(1-cyanocyclopropyl)cyclohex-anecarboxamide] gave an IC50 (human cathepsin K) of 2.17 nM and an IC50 (human cathepsin F) of 622 nM.

`COc1ccc(-n2cc(-c3ccc(N4CCS(=O)(=O)CC4)cc3)c([C@@H]3CCCC[C@H]3C(=O)NC3(C#N)CC3)n2)cc1` [Example 87, (1R,2R)-N-(1-cyanocyclopropyl)-2-(4-(4-(1,1-dioxidothiomorpholino)phen-yl)-1-(4-methoxyphenyl)-1H-pyrazol-3-yl)cyclohexanecarboxamide] was tested, and the IC50 (human cathepsin K) was 0.99 nM and the IC50 (human cathepsin F) was 740 nM.

In the case of `CS(=O)(=O)N1CCN(C(=O)c2ccc(-c3cn(-c4ccc(F)cc4)nc3[C@@H]3CCCC[C@H]3C(=O)NC3(C#N)CC3)cc2)CC1` [Example 93, (1R,2R)-N-(1-cyanocyclopropyl)-2-(1-(4-fluorophenyl)-4-(4-(4-(methylsulfonyl)piperazine-1-carbonyl)phenyl)-1H-pyrazol-3-yl)cyclohexanecarboxamide], the IC50 (human cathepsin K) was 5.02 nM and the IC50 (human cathepsin F) was 2350 nM.

With `N#CC1(NC(=O)[C@@H]2CCCC[C@H]2c2nn(-c3ccc(F)cn3)cc2-c2ccc(N3CCS(=N)(=O)CC3)cc2)CC1` [Example 5, (1R,2R)—N-(1-Cyanocyclopropyl)-2-(1-(5-fluoropyridin-2-yl)-4-(4-(1-imino-1-oxidothiomorpholino)phenyl)-1H-pyrazol-3-yl)cyclohexanecarboxamide] the IC50 (human cathepsin K) was 1.53 nM and the IC50 (human cathepsin F) was 877 nM.

Reference: patent US9656990B2, “Cathepsin cysteine protease inhibitors” (Merck Sharp & Dohme Corp., priority 2014, dated 2017)
